In patent US20260216170A1, “TETRAHYDROISOQUINOLINE HETEROBIFUNCTIONAL BCL-XL DEGRADERS” (Treeline Biosciences, Inc., priority 2023, published 2026):

Target: T1, Human BCL-XL protein (N-terminal HiBiT tagged BCL-XL expressed in HT1080 cells) (Homo sapiens, UniProt Q07817)
T1 construct: expressed in transfected cells; host or cells: HT-1080 (ATCC CCL-121), stably transduced with lentivirus pLV-UBC-N-HiBiT-BCL-XL-PGK-puro and selected with puromycin
Test: HiBiT Based Degradation Assay
Assay type: cell-based
Conditions: 24 hours incubation; for DC50: BCL-XL degradation, HT1080 cells expressing N-HiBiT-BCL-XL, normalized with DMSO control, geometric mean for multiple data points, read-out: EC50 (24 h); for Ymin (24 h): bottom of BCL-XL degradation curve (remaining HiBiT-BCL-XL signal vs DMSO control), HT1080 cells
Summary of the method: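 BCL-XL degradation was read as Nano-Glo HiBiT lytic luminescence relative to DMSO after a 24 h compound treatment of HT1080 cells carrying stably integrated N-HiBiT-BCL-XL. EC50 values come from four-parameter logistic curves, with the hook-curve minimum fixed as bottom, and are geometric means where tested repeatedly.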

T1 sequence (Q07817 whole entry): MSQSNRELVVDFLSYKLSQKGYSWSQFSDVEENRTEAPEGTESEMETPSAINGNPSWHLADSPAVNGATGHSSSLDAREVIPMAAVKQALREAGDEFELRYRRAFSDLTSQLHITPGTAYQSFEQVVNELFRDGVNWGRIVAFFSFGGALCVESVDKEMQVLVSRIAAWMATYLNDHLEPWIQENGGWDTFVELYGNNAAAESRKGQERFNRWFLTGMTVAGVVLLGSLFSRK

SMILES | DC50 [µM] | Ymin (24 h)
Cc1c(OC[C@H]2C[C@H]2CC2CCN(CC(=O)Nc3ccc4c(C5CCC(=O)NC5=O)nn(C)c4c3)CC2)cccc1-c1ccc(N2CCc3cccc(C(=O)Nc4nc5ccccc5s4)c3C2)nc1C(=O)O (single isomer, unassigned) [Compound 1004d] | 0.01 to 0.1 | B (30% ≤ Ymin < 50%)
Cn1nc(C2CCC(=O)NC2=O)c2ccc(NC(=O)CN3CCC(CCCOc4cccc(-c5ccc(N6CCc7cccc(C(=O)Nc8nc9ccccc9s8)c7C6)nc5C(=O)O)c4F)CC3)cc21 (stereo not drawn) [Compound 198] | 0.01 to 0.1 | B (30% ≤ Ymin < 50%)
Cc1cc2c(C3CCC(=O)NC3=O)nn(C)c2cc1NC(=O)CN1CCC2(CC1)CC(COc1ccc(-c3ccc(N4CCc5cccc(C(=O)Nc6nc7ccccc7s6)c5C4)nc3C(=O)O)c(C)c1)C2 (stereo not drawn) [Compound 125] | 0.01 to 0.1 | B (30% ≤ Ymin < 50%)
COc1c(NC(=O)CN2CCC(CCCOc3ccc(-c4ccc(N5CCc6cccc(C(=O)Nc7nc8ccccc8s7)c6C5)nc4C(=O)O)c(F)c3)CC2)ccc2c(C3CCC(=O)NC3=O)nn(C)c12 (stereo not drawn) [Compound 201] | 0.01 to 0.1 | A (Ymin < 30%)
Cc1cc(OC[C@H]2C[C@H]2C2CCN(CC(=O)Nc3ccc4c(C5CCC(=O)NC5=O)nn(C)c4c3)CC2)ccc1-c1ccc(N2CCc3cccc(C(=O)Nc4nc5ccccc5s4)c3C2)nc1C(=O)O (single isomer, unassigned) [Compound 1003c] | < 0.01 | A (Ymin < 30%)
COc1c(NC(=O)CN2CCC3(CC2)CC(COc2cccc(-c4ccc(N5CCc6ccnc(C(=O)Nc7nc8ccccc8s7)c6C5)nc4C(=O)O)c2C(F)(F)F)C3)ccc2c(C3CCC(=O)NC3=O)nn(C)c12 (stereo not drawn) [Compound 162, 6-[8-(1,3-benzothiazol-2-ylcarbamoyl)-3,4-dihydro-1H-2,7-naphthyridin-2-yl]-3-[3-[[7-[2-[[3-(2,6-dioxo-3-piperidyl)-7-methoxy-1-methyl-indazol-6-yl]amino]-2-oxo-ethyl]-7-azaspiro[3.5]nonan-2-yl]methoxy]-2-(trifluoromethyl)phenyl]pyridine-2-carboxylic acid] | 0.01 to 0.1 | B (30% ≤ Ymin < 50%)
Cn1nc(C2CCC(=O)NC2=O)c2ccc(NC(=O)CN3CCC(CCCOc4cccc(-c5ccc(N6CCc7cccc(C(=O)Nc8nc9ccccc9s8)c7C6)nc5C(=O)O)c4C(F)(F)F)CC3)c(F)c21 (stereo not drawn) [Compound 182] | 0.01 to 0.1 | B (30% ≤ Ymin < 50%)
Cc1cc(OC2CCC3(CC2)CCN(CC(=O)Nc2ccc4c(C5CCC(=O)NC5=O)nn(C)c4c2)CC3)ccc1-c1ccc(N2CCc3cccc(C(=O)Nc4nc5ccccc5s4)c3C2)nc1C(=O)O (stereo not drawn) [Compound 221] | < 0.01 | A (Ymin < 30%)
Cc1cc(OC2CC3(CCN(CC(=O)Nc4ccc5c(C6CCC(=O)NC6=O)nn(C)c5c4)CC3)C2)ccc1-c1ccc(N2CCc3cccc(C(=O)Nc4nc5ccccc5s4)c3C2)nc1C(=O)O (stereo not drawn) [Compound 112, 6-[8-(1,3-benzothiazol-2-ylcarbamoyl)-3,4-dihydro-1H-isoquinolin-2-yl]-3-[4-[[7-[2-[[3-(2,6-dioxo-3-piperidyl)-1-methyl-indazol-6-yl]amino]-2-oxo-ethyl]-7-azaspiro[3.5]nonan-2-yl]oxy]-2-methyl-phenyl]pyridine-2-carboxylic acid] | < 0.01 | A (Ymin < 30%)
COc1c(NC(=O)CN2CCC(CCCOc3cccc(-c4ccc(N5CCc6cccc(C(=O)Nc7nc8ccccc8s7)c6C5)nc4C(=O)O)c3C)CC2)ccc2c(C3CCC(=O)NC3=O)nn(C)c12 (stereo not drawn) [Compound 104, 6-[8-(1,3-benzothiazol-2-ylcarbamoyl)-3,4-dihydro-1H-isoquinolin-2-yl]-3-[3-[3-[1-[2-[[3-(2,6-dioxo-3-piperidyl)-7-methoxy-1-methyl-indazol-6-yl]amino]-2-oxo-ethyl]-4-piperidyl]propoxy]-2-methyl-phenyl]pyridine-2-carboxylic acid] | 0.01 to 0.1 | B (30% ≤ Ymin < 50%)
Cc1cc(OC[C@H](C)CC2CCN(CC(=O)Nc3ccc4c(C5CCC(=O)NC5=O)nn(C)c4c3)CC2)ccc1-c1ccc(N2CCc3ccnc(C(=O)Nc4nc5ccccc5s4)c3C2)nc1C(=O)O (single isomer, unassigned) [Compound 140a] | < 0.01 | A (Ymin < 30%)
COc1c(NC(=O)CN2CCC3(CC2)CC(COc2cccc(-c4ccc(N5CCc6cccc(C(=O)Nc7nc8ccccc8s7)c6C5)nc4C(=O)O)c2C)C3)ccc2c(C3CCC(=O)NC3=O)nn(C)c12 (stereo not drawn) [Compound 127] | 0.01 to 0.1 | A (Ymin < 30%)
COc1c(NC(=O)CN2CCC3(CC2)CC(COc2ccc(-c4ccc(N5CCc6ccnc(C(=O)Nc7nc8ccccc8s7)c6C5)nc4C(=O)O)c(C(F)(F)F)c2)C3)ccc2c(C3CCC(=O)NC3=O)nn(C)c12 (stereo not drawn) [Compound 181, 6-[8-(1,3-benzothiazol-2-ylcarbamoyl)-3,4-dihydro-1H-2,7-naphthyridin-2-yl]-3-[4-[[7-[2-[[3-(2,6-dioxo-3-piperidyl)-7-methoxy-1-methyl-indazol-6-yl]amino]-2-oxo-ethyl]-7-azaspiro[3.5]nonan-2-yl]methoxy]-2-(trifluoromethyl)phenyl]pyridine-2-carboxylic acid] | 0.01 to 0.1 | B (30% ≤ Ymin < 50%)
Cc1c(OCCC[C@@H]2CCN(CC(=O)Nc3ccc4c(C5CCC(=O)NC5=O)nn(C)c4c3)[C@@H](C)C2)cccc1-c1ccc(N2CCc3cccc(C(=O)Nc4nc5ccccc5s4)c3C2)nc1C(=O)O (stereo partly drawn) [Compound 208a] | 0.01 to 0.1 | B (30% ≤ Ymin < 50%)
Cn1nc(C2CCC(=O)NC2=O)c2ccc(NC(=O)CN3CCC4(CC3)CC(Oc3ccc(-c5ccc(N6CCc7ccnc(C(=O)Nc8nc9ccccc9s8)c7C6)nc5C(=O)O)c(C(F)(F)F)c3)C4)cc21 (stereo not drawn) [Compound 168, 6-[8-(1,3-benzothiazol-2-ylcarbamoyl)-3,4-dihydro-1H-2,7-naphthyridin-2-yl]-3-[4-[[7-[2-[[3-(2,6-dioxo-3-piperidyl)-1-methyl-indazol-6-yl]amino]-2-oxo-ethyl]-7-azaspiro[3.5]nonan-2-yl]oxy]-2-(trifluoromethyl)phenyl]pyridine-2-carboxylic acid] | < 0.01 | B (30% ≤ Ymin < 50%)
Cn1nc(C2CCC(=O)NC2=O)c2ccc(NC(=O)CN3CCC4(CC3)CC(Oc3ccc(-c5ccc(N6CCc7ccnc(C(=O)Nc8nc9ccccc9s8)c7C6)nc5C(=O)O)c(C(F)(F)F)c3)C4)nc21 (stereo not drawn) [Compound 206] | 0.01 to 0.1 | B (30% ≤ Ymin < 50%)
Cn1nc(C2CCC(=O)NC2=O)c2ccc(NC(=O)CN3CCC4(CC3)CC(Oc3cccc(-c5ccc(N6CCc7cccc(C(=O)Nc8nc9ccccc9s8)c7C6)nc5C(=O)O)c3C(F)(F)F)C4)cc21 (stereo not drawn) [Compound 169, 6-(8-(benzo[d]thiazol-2-ylcarbamoyl)-3,4-dihydroisoquinolin-2(1H)-yl)-3-(3-((7-(2-((3-(2,6-dioxopiperidin-3-yl)-1-methyl-1H-indazol-6-yl)amino)-2-oxoethyl)-7-azaspiro[3.5]nonan-2-yl)oxy)-2-(trifluoromethyl)phenyl)picolinic acid] | < 0.01 | B (30% ≤ Ymin < 50%)
Cn1nc(C2CCC(=O)NC2=O)c2ccc(NC(=O)CN3CCC4(CC3)CC(COc3cccc(-c5ccc(N6CCc7ccnc(C(=O)Nc8nc9ccccc9s8)c7C6)nc5C(=O)O)c3C(F)(F)F)C4)cc21 (stereo not drawn) [Compound 161, 6-[8-(1,3-benzothiazol-2-ylcarbamoyl)-3,4-dihydro-1H-2,7-naphthyridin-2-yl]-3-[3-[[7-[2-[[3-(2,6-dioxo-3-piperidyl)-1-methyl-indazol-6-yl]amino]-2-oxo-ethyl]-7-azaspiro[3.5]nonan-2-yl]methoxy]-2-(trifluoromethyl)phenyl]pyridine-2-carboxylic acid] | 0.01 to 0.1 | B (30% ≤ Ymin < 50%)

Further lines, results first:

DC50 [µM] | Ymin (24 h) | SMILES
0.01 to 0.1 | B (30% ≤ Ymin < 50%) | C[C@H]1C[C@H](CCCOc2cccc(-c3ccc(N4CCc5cccc(C(=O)Nc6nc7ccccc7s6)c5C4)nc3C(=O)O)c2C(F)(F)F)CCN1CC(=O)Nc1ccc2c(C3CCC(=O)NC3=O)nn(C)c2c1 (stereo partly drawn) [Compound 215a]
0.01 to 0.1 | B (30% ≤ Ymin < 50%) | C[C@H]1C[C@@H](CCCOc2cccc(-c3ccc(N4CCc5cccc(C(=O)Nc6nc7ccccc7s6)c5C4)nc3C(=O)O)c2C(F)(F)F)CCN1CC(=O)Nc1ccc2c(C3CCC(=O)NC3=O)nn(C)c2c1 (stereo partly drawn) [Compound 215b]
0.01 to 0.1 | B (30% ≤ Ymin < 50%) | C[C@H]1C[C@H](CCCOc2ccc(-c3ccc(N4CCc5cccc(C(=O)Nc6nc7ccccc7s6)c5C4)nc3C(=O)O)c(C(F)(F)F)c2)CCN1CC(=O)Nc1ccc2c(C3CCC(=O)NC3=O)nn(C)c2c1 (stereo partly drawn) [Compound 209b]
0.01 to 0.1 | A (Ymin < 30%) | COc1c(NC(=O)CN2CCC(CC[C@@H](C)Oc3ccc(-c4ccc(N5CCc6cccc(C(=O)Nc7nc8ccccc8s7)c6C5)nc4C(=O)O)c(C)c3)CC2)ccc2c(C3CCC(=O)NC3=O)nn(C)c12 (single isomer, unassigned) [Compound 223b]
< 0.01 | A (Ymin < 30%) | C[C@@H]1C[C@H](CCCOc2ccc(-c3ccc(N4CCc5cccc(C(=O)Nc6nc7ccccc7s6)c5C4)nc3C(=O)O)c(C(F)(F)F)c2)CCN1CC(=O)Nc1ccc2c(C3CCC(=O)NC3=O)nn(C)c2c1 (stereo partly drawn) [Compound 209c]
0.01 to 0.1 | B (30% ≤ Ymin < 50%) | C[C@@H]1C[C@@H](CCCOc2cccc(-c3ccc(N4CCc5cccc(C(=O)Nc6nc7ccccc7s6)c5C4)nc3C(=O)O)c2C(F)(F)F)CCN1CC(=O)Nc1ccc2c(C3CCC(=O)NC3=O)nn(C)c2c1 (stereo partly drawn) [Compound 215c]
